Data reported in patent US20100137138A1, “HERBICIDE/SAFENER COMBINATION” (BAYER CROPSCIENCE AG, priority 2008, published 2010).

What was measured:
Type in all cases: in vivo
[1] = tested on: Barley (Adonis); experiment: Post-emergence herbicidal effect and safener effect, Barley (Adonis); details: herbicide dosage 25 g a.i./ha, visual scoring vs untreated controls
Method: (§1) Seeds or rhizome pieces of mono- and dicotyledonous harmful plants and of crop plants are planted in peat pots in sandy loam, covered with earth and grown in a greenhouse under good growth conditions. Alternatively to this, harmful plants occurring in the paddy rice cultivation are cultivated in pots in which water stands up to 2 cm above the soil surface. 10 to 20 days after sowing, the test plants are treated in the one to three-leaf stage. The herbicide/safener active ingredient combinations according to the invention, formulated as water-soluble powders or suspensions, and, in parallel experiments, the correspondingly formulated individual active ingredients are sprayed onto the green plant parts in various dosages using an application rate of 300 l of water/ha (converted) and, after the test plants have remained in the greenhouse under optimum growth conditions for 2-3 weeks, the effect of the preparations is scored visually in comparison with untreated controls. In the case of rice or in the case of harmful plants which occur in the rice cultivation, the active ingredients are also placed directly into the irrigation water (application analogous to the so-called granules application) or sprayed onto plants and into the irrigation water.

[2] = tested on: Wheat (Triso); experiment: Pre-emergence herbicidal effect and safener effect, Wheat (Triso); details: herbicide dosage 100 g a.i./ha, visual scoring vs untreated controls
Description: (§2) Seeds or rhizome pieces of mono- and dicotyledonous weed plants and crop plants were planted in peat pots in sandy loam and covered with earth. The herbicide/safener active ingredient combinations according to the invention, formulated as water-soluble powders or suspensions, and, in parallel experiments, the correspondingly formulated individual active ingredients were then applied to the surface of the covering earth at an application rate of 600 to 800 l of water/ha (converted) in a variety of dosages.
(§3) After the treatment, the pots were placed in the greenhouse and kept under good growth conditions for the weeds and the crop plants. Visual scoring of the plant damage or emergence damage was carried out after the test plants had emerged after a test period of 2 to 4 weeks, in comparison with untreated controls.

[3] = tested on: Corn (Aventura); experiment: Pre-emergence herbicidal effect and safener effect, Corn (Aventura); details: herbicide dosage 100 g a.i./ha, visual scoring vs untreated controls
Description: as §2, §3

[4] = tested on: Corn (Aventura); experiment: Post-emergence herbicidal effect and safener effect, Corn (Aventura); details: herbicide dosage 50 g a.i./ha, visual scoring vs untreated controls
Method: as §1

[5] = tested on: Rice (Ballila); experiment: Post-emergence herbicidal effect and safener effect, Rice (Ballila); details: herbicide dosage 100 g a.i./ha, visual scoring vs untreated controls
Method: as §1

COC(=O)c1nc(-c2ccc(Cl)c(OC)c2F)nc(N)c1Cl [Compound I-272]
% Effect (without safener) [1]: 20%
% Effect (without safener) [2]: 30%
% Effect (without safener) [3]: 70%
% Effect (without safener) [4]: 70%
% Effect (without safener) [5]: 70%
